The text below walks through data of patent publication US4233291A (priority 1977, dated 1980).

The subject of test [1] is leukemic cells L 1210. More on the design: species or system mice. Conditions: mouse, in vivo.
Test [2] has as its system peritoneal macrophages from unstimulated rats (Fisher strain). Put plainly: Stimulation of the activities of the macrophages, cultivated with the substance. The class given is cell-based. The note with it: 16 hours incubation. Here is the method: The peritoneal macrophages from unstimulated rats (Fisher strain) are prelevated through peritoneal washing and isolation on plastic rack. They are cultivated for a night with dosages of the depsipeptide ranging from 1 picogramm to 1 nanogramm/ml.
The content in proteins, in lysosomal β-glucoronidase, and in cytoplasmic leucine-amino peptidase are determined on the cells previously lysed with 0.05% Triton X-100.
In the same manner, incubation has also been performed with a solution of lipopolysaccharide from Escherichia coli and Muramyldipeptide as reference substances.
Amounts of cellular enzymes and proteins in the macrophages after 16 hours incubation.
The content in proteins is expressed in g/10^6 cells and that in β-glucuronidase in mMol of substrate hydrolysed by 10^6 cells per hour.

Test [3] has as its system larvae of schistosoma mansoni. In words: Release of 51 chromium from larvae of schistosoma mansoni, cytotoxicity in vivo. Conditions: macrophages of the rat stimulated in vivo. The text has this:
The depsipeptide from Fusarium equiseti has been tested to determine its action in vivo on the cytotoxicity induced in the intraperitoneal macrophages of the rat against the larvae of schistosoma mansoni.
The macrophages are stimulated either in vitro or in vivo and are contacted with a suspension of larvae of schistosoma mansoni previously tagged with 51 chromium.
This measure reflects the significance of cellular lesions on the surface of the schistosomules. The radio activity released in the medium is expressed as a percentage of the total radio-activity present in the schistosomules at the beginning of the experiments.

The mark [4] stands for this setting: 1 ng/ml (row printed after the first 100 ng/ml).
[5] abbreviates: 10 ng/ml (second row so printed).
The mark [6] stands for this setting: 100 ng/ml (second row so printed, last row).

For `O=P1(N(CCCl)CCCl)NCCCO1` (stereo not drawn) [Cyclophosphamide], the survival time entry in test [1] was “extends in a statiscally significative manner”.

Consider `CC(=O)N[C@@H]1[C@@H](O[C@H](C)C(=O)N[C@@H](C)C(=O)N[C@H](CCC(=O)O)C(N)=O)[C@H](O)[C@@H](CO)O[C@H]1O` [Muramyldipeptide], for which the Proteins in test [2] (1 pg/ml) is given as 46,1 ± 2,2 g/10^6 cells; in test [2] (10 pg/ml), 44,8 ± 0,7 g/10^6 cells; in test [2] (100 pg/ml), 44,6 ± 1,9 g/10^6 cells; in test [2] (setting [4]) it was 45,1 ± 0,9 g/10^6 cells; in test [2] (1 ng) it was 44,0 ± 1,8 g/10^6 cells; in test [2] (setting [5]), 48,1 ± 1,8 g/10^6 cells. In addition, the Proteins in test [2] (10 ng/ml) is given as 43,4 ± 1,8 g/10^6 cells; in test [2] (setting [6]), 55,3 ± 3,1 g/10^6 cells; in test [2] (100 ng/ml), 40,5 ± 0,7 g/10^6 cells. Further, the β-glucuronidase is on record as 36,5 ± 0,1 mMol of substrate hydrolysed b in test [2] (1 pg/ml); 36,3 ± 6,4 mMol of substrate hydrolysed b in test [2] (10 pg/ml); 41,0 ± 2,9 mMol of substrate hydrolysed b in test [2] (100 pg/ml); 30,6 ± 3,8 mMol of substrate hydrolysed b in test [2] (setting [4]); 34,0 ± 5,3 mMol of substrate hydrolysed b in test [2] (1 ng); 32,2 ± 3,0 mMol of substrate hydrolysed b in test [2] (setting [5]). In addition, the β-glucuronidase in test [2] (10 ng/ml) was 39,6 ± 6,1 mMol of substrate hydrolysed b; in test [2] (setting [6]), 39,0 ± 1,6 mMol of substrate hydrolysed b; in test [2] (100 ng/ml), 23,9 ± 6,2 mMol of substrate hydrolysed b. The “release of 51 Cr (change)” value in test [3] (1 g) is on record as “+6%”; in test [3] (100 g) it was “+10%”.
